Data reported in publication PMC5794004 (Bioorganic & medicinal chemistry, 2017).
Each block holds one molecule with its values, some of them ahead of it.

Key:
[1] = target: hCB2 receptors (Homo sapiens, UniProt P34972); assay: CB2 receptor radioligand binding, [3H]CP55,940, CHO-K1 hCB2 membranes; conditions: for interaction with CB2R: up to 100 μM
[2] = target: T1, MAGL (Homo sapiens, UniProt Q99685); assay: MAGL activity assay, U937 cell homogenate; assay type: biochemical
T1 sequence (Q99685 1-303): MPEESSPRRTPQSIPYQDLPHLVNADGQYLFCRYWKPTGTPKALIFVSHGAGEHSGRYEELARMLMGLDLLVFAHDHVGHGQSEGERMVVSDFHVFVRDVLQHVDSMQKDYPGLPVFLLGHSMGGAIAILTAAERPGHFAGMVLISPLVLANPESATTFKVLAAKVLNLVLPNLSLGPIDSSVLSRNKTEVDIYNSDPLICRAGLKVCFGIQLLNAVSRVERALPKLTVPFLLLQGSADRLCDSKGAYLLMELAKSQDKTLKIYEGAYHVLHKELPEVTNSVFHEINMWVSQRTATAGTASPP

[3] = system: AEA uptake; assay: AEA uptake assay, intact U937 cells; assay type: cell-based
[4] = acute feeding model; cited from earlier work
[5] = target: hCB1R (Homo sapiens, UniProt P21554); assay: CB1 receptor radioligand binding, [3H]CP55,940, CHO-K1 hCB1R membranes; conditions: for increase of [3H]CP55,940 binding at CB1R: maximal increase over vehicle
Chain of hCB1R (P21554 whole entry): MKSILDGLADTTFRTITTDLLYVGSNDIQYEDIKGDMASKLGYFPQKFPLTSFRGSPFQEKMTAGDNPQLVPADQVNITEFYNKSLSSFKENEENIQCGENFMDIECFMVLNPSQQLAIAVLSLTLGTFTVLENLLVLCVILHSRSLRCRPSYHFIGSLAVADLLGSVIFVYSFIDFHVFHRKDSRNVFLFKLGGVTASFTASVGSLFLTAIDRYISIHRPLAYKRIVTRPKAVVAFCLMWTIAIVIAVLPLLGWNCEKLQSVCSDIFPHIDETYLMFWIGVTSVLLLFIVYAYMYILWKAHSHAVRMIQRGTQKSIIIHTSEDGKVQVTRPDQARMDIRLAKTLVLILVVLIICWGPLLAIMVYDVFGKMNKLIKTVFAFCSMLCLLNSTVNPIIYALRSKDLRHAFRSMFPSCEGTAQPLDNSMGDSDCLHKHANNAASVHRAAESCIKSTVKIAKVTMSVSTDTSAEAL

Chain of hCB2 receptors (P34972 whole entry): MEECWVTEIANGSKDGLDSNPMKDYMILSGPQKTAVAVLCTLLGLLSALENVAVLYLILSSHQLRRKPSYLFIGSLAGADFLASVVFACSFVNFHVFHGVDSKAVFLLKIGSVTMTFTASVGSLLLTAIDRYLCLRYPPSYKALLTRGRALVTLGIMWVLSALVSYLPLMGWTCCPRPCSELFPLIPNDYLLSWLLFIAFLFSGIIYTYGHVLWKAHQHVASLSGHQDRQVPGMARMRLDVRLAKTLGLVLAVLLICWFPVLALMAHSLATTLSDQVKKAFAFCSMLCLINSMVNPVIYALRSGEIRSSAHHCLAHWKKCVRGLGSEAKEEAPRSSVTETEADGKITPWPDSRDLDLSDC

interaction with CB2R [1]: did not significantly interact
Structure (SMILES): O=C(Nc1ccc(Cl)cc1)Nc1cccc(Nc2cccc(N3CCCC3)c2)c1 [FG45a, 1-(4-Chlorophenyl)-3-(3-{[3-(pyrrolidin-1-yl)phenyl]amino}phenyl)urea]

binding to CB2R ([1]; up to 10 μM): did not show any significant binding
MAGL result in words [2]: negative
increase of [3H]CP55,940 binding at CB1R [5]: 15–20%
Structure (SMILES): O=C(Nc1ccc(Cl)cc1)Nc1cccc(-c2cccc(N3CCCC3)n2)c1 [PSNCBAM-1, 1-(4-Chlorophenyl)-3-{3-[6-(pyrrolidin-1-yl)pyridin-2-yl]phenyl}urea]
AEA cell uptake result in words [3]: negative
food intake and body weight [4]: decrease food intake and body weight

increase of [3H]CP55,940 binding at CB1R [5]: 15–20%
Structure (SMILES): O=C(Nc1ccc(Cl)cc1)Nc1cccc(-c2cccc(N3CCCC3)c2)c1 [SC4a, 1-(4-Chlorophenyl)-3-[3′-(pyrrolidin-1-yl)biphenyl-3-yl]urea]

Ki [1]: ~50 µM
binding to CB1R ([5]; at 100 μM): approx. 10%
influence on [3H]CP55,940 binding to CB1R ([5]; up to 10 μM): does not influence
Structure (SMILES): O=C(Cc1ccc(Cl)cc1)Nc1cccc(-c2cccc(N3CCCC3)c2)c1 [SC33, 2-(4-Chlorophenyl)-N-[3′-(pyrrolidin-1-yl)biphenyl-3-yl]acetamide]

interaction with CB2R [1]: did not significantly interact
Structure (SMILES): O=C(Nc1ccc(Cl)cc1)Nc1cccc(Nc2cccc(N3CCCC3)n2)c1 [SN15b]
